Earlier results, collected in US10342816B2, “Aqueous ophthalmic formulations based on azithromycin” (MEDIVIS S.R.L., priority 2013, dated 2019).

Columns and labels:
[1] = pharmacopoeia
[2] = aqueous solution, phosphate buffer, low ionic strength

- solubility in water [1]: poorly soluble in water
- pH at which the kinetics of the hydrolytic phenomenon has the minimum value [2]: 6.3
SMILES: CC[C@H]1OC(=O)[C@H](C)[C@@H](O[C@H]2CC(C)(OC)[C@@H](O)C(C)O2)[C@H](C)[C@@H](O[C@@H]2OC(C)CC(N(C)C)C2O)[C@](C)(O)C[C@@H](C)CN(C)[C@H](C)[C@@H](O)[C@]1(C)O (some centres unmarked) [azithromycin]
